In patent EP1577294A1, “S-SUBSTITUTED N-1- (HETERO)ARYL ALKYL-N - (HETERO)ARYL ALKYLYSOTHIOCARBAMIDES, METHOD FOR THE PRODUCTION THEREOF, PHYSIOLOGICALLY ACTIVE S-SUBSTITUTED N-1- (HETERO )ARYL ALKYL-N - (HETERO)ARYL ALKYLYSOTHIOCARBAMIDES,A PHARMACEUTICAL COMPOUND AND CURING METHOD” (Institut Fiziologicheski Aktivnykh Veschestv Rossiyskov …, priority 2002, dated 2004):

Legend:
NMDA receptors = test: Patch-clamp: blockade of NMDA-induced currents in cerebral cortex neurons; type: cell-based, rat; conditions: for Blockade of NMDA-induced currents (%): neurons of the cerebral cortex
Source text: (§1) The first was to determine the potentiating effect of new compounds on AMPA- and kainate-induced transmembrane currents in neurons of the Purkinje cerebellum of rats, and also blockade of NMDA-induced currents in the neurons of the cerebral cortex of rats;
(§2) Method for assessing properties of the compounds potentiating AMPA/KA-induced currents and blocking NMDA-induced currents.
(§3) Transmembrane currents were induced by activation of AMPA/KA receptors by applying solutions of kainic acid, the agonist of these receptors, and by activation of NMDA receptors by applying solutions of N-methyl-D-aspartic acid (NMDA), the agonist of these receptors, using the rapid superfusion method. Currents were recorded with the aid of borosilicate microelectrodes (resistance 1.5-2.5 mohm) filled with the following composition (in mM): KCl 100.0, EGTA 11.0, CaCl2 1.0, MgCl2 1.0, HEPES 10.0, ATP 5.0, pH 7.2.
(§4) An EPC9 (HEKA, Germany) was used for recording. Currents were recorded on a Pentium-100 PC hard disc using the Pulse program, also purchased from the HEKA company. The results were processed with the aid of the Pulsefit program (HEKA).

AMPA/KA receptors = test: Patch-clamp: potentiation of kainate-induced transmembrane currents in freshly isolated Purkinje neurons; type: cell-based, rat; conditions: for Potentiation of kainate-induced currents (%): Purkinje neurons of the rat cerebellum
Method: as §1, §2
The experiments were performed using the patch-clamp method on freshly-isolated Purkinje neurons taken from the cerebellum of rats (aged 14-16 days). A modified method was used for isolation. Slices of cerebellum 400-600 µm in thickness were placed in a thermostat-controlled chamber with a volume of 10 ml. The solution for isolation had the following composition (in mM): NaCl 150.0, KCl 5.0, CaCl2 2.0, MgSO4×7H2O 2.0, HEPES 10.0, glucose 15.0, pH 7.42. The slices were incubated in this solution for 60 minutes, after which this solution was replaced by a similar solution containing pronase (2 mg/ml) and collagenase (1 mg/ml) and incubation was continued for 70 minutes. After washing with the original solution for 20 minutes, the slices were placed in a Petri dish and dissociated mechanically with the aid of a Pasteur pipette. The solutions were continuously bubbled with 100% O2 at t° 34°C. The Purkinje neurons were placed in a working chamber with a volume of 0.6 ml. The working solution has the composition (in mM): NaCl 150.0, KCl 5.0, CaCl2 2.6, MgSO4×7H2O 2.0, HEPES 10.0, glucose 15.0, pH 7.36.
as §3, §4
The application of kainate induces inward transmembrane currents in the Purkinje neurons. Addition of the compounds to the perfusion solution elicits an increase in the amplitude of the currents. This increase depends on the compound, on its concentration, and on the time which has passed since the start of application of the substance.

Br.C1=CC(SC(=NCc2ccccc2)NCc2ccccc2)CCC1 (stereo not shown) [Compound 17, S-2-Cyclohexenyl-N-benzyl-N'-benzylisothiocarbamide hydrobromide]
Blockade of NMDA-induced currents (%) (NMDA receptors; at 0.5 µM): 30-50% | Blockade of NMDA-induced currents (%) (NMDA receptors; at 2 µM): 100% | Potentiation of kainate-induced currents (%) (AMPA/KA receptors; at 10 µM): 0% at 10 µM | Potentiation of kainate-induced currents (%) (AMPA/KA receptors; at 0.5-1.0 µM): 60-100% at 0.5-1.0 µM

Br.c1ccc(CCSC(=NCc2ccccc2)NCc2ccccc2)cc1 [Compound 18, S-2-Phenylethyl-N-benzyl-N'-benzylisothiocarbamide hydrobromide]
decrease in the NMDA-induced currents (NMDA receptors; 3 µM, observed range (average given separately)): 25-35% | Washing out time that returns the amplitude of the NMDA-induced currents to the control value (NMDA receptors; NMDA-induced currents, cerebral cortex neurons): 3 to 6 min | Blockade of NMDA-induced currents (%) (NMDA receptors; at 3 µM (average), hydrobromide): 30% at 3 µM, | Blockade of NMDA-induced currents (%) (NMDA receptors; at 3 µM (average), listed as compound 18, hydrobromide): 30% | Blockade of NMDA-induced currents (%) (NMDA receptors; at 10 µM, hydrobromide): 100% at 10 µM | Blockade of NMDA-induced currents (%) (NMDA receptors; at 10 µM, listed as compound 18, hydrobromide): 100% | increase in kainate-induced currents (AMPA/KA receptors; 20 µM, observed range (average given separately)): 8-12% | Potentiation of kainate-induced currents (%) (AMPA/KA receptors; at 20 µM (average), hydrobromide): 10% at 20 µM | Potentiation of kainate-induced currents (%) (AMPA/KA receptors; at 20 µM (average), listed as compound 18, hydrobromide): 10% | Washing out time that returns the amplitude of the responses to the control value (AMPA/KA receptors; kainate-induced currents, after 20 µM): 3 to 5 min

Br.O=C(O)c1ccc(CSC(=NCc2ccccc2)NCc2ccccc2)cc1 [Compound 15, S-4-Carboxybenzyl-N-benzyl-N'-benzylisothiocarbamide hydrobromide]
Blockade of NMDA-induced currents (%) (NMDA receptors; at 0.5-30 µM): 0 at 0.5-30 µM % | Potentiation of kainate-induced currents (%) (AMPA/KA receptors; at 0.5-30 µM): 0 at 0.5-30 µM %

Br.CCOC(=O)CCSC(=NCc1ccccc1)NCc1ccccc1 [Compound 19, S-2-Ethoxycarbonyl-ethyl-N-benzyl-N'-benzylisothiocarbamide hydrobromide]
Blockade of NMDA-induced currents (%) (NMDA receptors; at 0.5-30 µM): 0 at 0.5-30 µM % | Potentiation of kainate-induced currents (%) (AMPA/KA receptors; at 0.5-30 µM): 0 at 0.5-30 µM %

CSC(=NCc1ccccc1)NCc1ccccc1 [Compound 11, S-Methyl-N-benzyl-N'-benzylisothio-carbamide]
Blockade of NMDA-induced currents (%) (NMDA receptors; at 0.5-30 µM): 0 at 0.5-30 µM % | Potentiation of kainate-induced currents (%) (AMPA/KA receptors; at 0.5-30 µM): 0 at 0.5-30 µM %

CC12CC3CC(C)(C1)CC(N)(C3)C2 [Memantine, reference compound]
Blockade of NMDA-induced currents (%) (NMDA receptors; at 17 µM): 50% at 17 µM | Potentiation of kainate-induced currents (%) (AMPA/KA receptors; at 30 µM): 15% at 30 µM

NS(=O)(=O)c1cc2c(cc1Cl)NC(C1CC3C=CC1C3)NS2(=O)=O (stereo not shown) [Cyclothiazide, reference compound]
Blockade of NMDA-induced currents (%) (NMDA receptors; at 1-30 µM): 0 at 1-30 µM % | Potentiation of kainate-induced currents (%) (AMPA/KA receptors; at 1 µM): 20% at 1 µM

Nc1c2c(nc3ccccc13)CCCC2 [Tacrine, reference compound]
Blockade of NMDA-induced currents (%) (NMDA receptors; at 0.5-30 µM): 0 at 0.5-30 µM % | Potentiation of kainate-induced currents (%) (AMPA/KA receptors; at 0.5-30 µM): 0 at 0.5-30 µM %

Br.C=CCSC(=NCc1ccccc1)NCc1ccccc1 [Compound 16, S-Allyl-N-benzyl-N'-benzylisothiocarbamide hydrobromide]
Blockade of NMDA-induced currents (%) (NMDA receptors; at 0.5-30 µM): 0 at 0.5-30 µM % | Potentiation of kainate-induced currents (%) (AMPA/KA receptors; at 0.5-30 µM): 0 at 0.5-30 µM %

CCSC(=NCc1ccccc1)NCc1ccccc1.I [Compound 12, S-Ethyl-N-benzyl-N'-benzylisothiocarbamide hydriodide]
Blockade of NMDA-induced currents (%) (NMDA receptors; at 0.5-30 µM): 0 at 0.5-30 µM % | Potentiation of kainate-induced currents (%) (AMPA/KA receptors; at 0.5-30 µM): 0 at 0.5-30 µM %

c1ccc(CN=C(NCc2ccccc2)SCc2ccccc2)cc1 [Compound 13, S-Benzyl-N-benzyl-N'-benzylisothiocarbamide]
Blockade of NMDA-induced currents (%) (NMDA receptors; at 0.5-30 µM): 0 at 0.5-30 µM % | Potentiation of kainate-induced currents (%) (AMPA/KA receptors; at 0.5-30 µM): 0 at 0.5-30 µM %

Cl.O=[N+]([O-])c1ccc(CSC(=NCc2ccccc2)NCc2ccccc2)cc1 [Compound 14, S-4-Nitrobenzyl-N-benzyl-N'-benzylisothiocarbamide hydrochloride]
Blockade of NMDA-induced currents (%) (NMDA receptors; at 0.5-30 µM): 0 at 0.5-30 µM % | Potentiation of kainate-induced currents (%) (AMPA/KA receptors; at 0.5-30 µM): 0 at 0.5-30 µM %
